Test results: US10709711B2 (G1 Therapeutics, Inc., priority 2013, dated 2020)

Tests used:
[1] = test system: SupT1 cells (human T-cell lymphoblastic leukemia); assay: Inhibition of cellular proliferation, SupT1 cells (CellTiter-Glo); assay type: cell-based; conditions: SUP-T1, 96 h, cell viability after four days, nine point dilution series 10 uM to 1 nM
Procedure: (§1) The SupT1 cells were seeded in Costar (Tewksbury, Mass.) 3093 96 well tissue culture treated white walled/clear bottom plates. A nine point dose response dilution series from 10 uM to 1 nM was performed and cell viability was determined after four days as indicated using the CellTiter-Glo® assay (CTG; Promega, Madison, Wis., United States of America) following the manufacturer's recommendations. Plates were read on a BioTek (Winooski, Vt.) Syngergy2 multi-mode plate reader. The Relative Light Units (RLU) were plotted as a result of variable molar concentration and data was analyzed using Graphpad (LaJolla, Calif.) Prism 5 statistical software to determine the IC50 for each compound.
(§2) The compounds listed in Table 1 were tested for the inhibition of cellular proliferation using SupT1 (human T-cell lymphoblastic leukemia) and Daudi (human B-lymphoblastoid cell from Burkitt's Lymphoma patient).

[2] = test system: Daudi (human B-lymphoblastoid cell from Burkitt's Lymphoma patient); assay: Inhibition of cellular proliferation, Daudi cells (CellTiter-Glo); assay type: cell-based; conditions: EC50 measured as illustrated in Example 150 (CellTiter-Glo)
Procedure: as §1, §2

| Structure (SMILES) | EC50 [1] [nM] | EC50 [2] [nM] |
| --- | --- | --- |
| CCC(C)CN1CCN(c2ccc(Nc3ncc4cc5n(c4n3)C3(CCCC3)CNC5=O)nc2)CC1 (stereo not drawn) [AAA] | 15 | 3340 |
| C[C@H](O)CN1CCN(c2ccc(Nc3ncc4cc5n(c4n3)C3(CCCCC3)CNC5=O)nc2)CC1 [A] | 57 | 281 |
| CN1CCN(C(=O)c2ccc(Nc3ncc4cc5n(c4n3)C3(CCCC3)CNC5=O)nc2)CC1 [BBB] | 41 | 758 |
| CC1(C)CN(c2ccc(Nc3ncc4cc5n(c4n3)C3(CCCCC3)CNC5=O)nc2)CCN1C1CC1 [BB] | 70 | 472 |
| C[C@H]1CN(c2ccc(Nc3ncc4cc5n(c4n3)C3(CCCCC3)CNC5=O)nc2)CCN1CC1CC1 [B] | 96 | 385 |
| C[C@@H]1CN(c2ccc(Nc3ncc4cc5n(c4n3)C3(CCCCC3)CNC5=O)nc2)C[C@H](C)N1C [DD] | 105 | 546 |
| CC(C)(O)CN1CCN(c2ccc(Nc3ncc4cc5n(c4n3)C3(CCCC3)CNC5=O)nc2)CC1 [EEE] | 65 | 475 |
| CC(C)N1CCN(Cc2ccc(Nc3ncc4cc5n(c4n3)C3(CCCCC3)CNC5=O)nc2)CC1 [EE] | 89 | 259 |
| CC(C)C1CN(c2ccc(Nc3ncc4cc5n(c4n3)C3(CCCCC3)CNC5=O)nc2)CCN1 (stereo not drawn) [E] | 9.3 | 140 |
| CCN1[C@H](C)CN(c2ccc(Nc3ncc4cc5n(c4n3)C3(CCCCC3)CNC5=O)nc2)C[C@@H]1C [FF] | 90 | 380 |
| O=C1NCC2(CCCCC2)n2c1cc1cnc(Nc3ccc(N4CCN(C5CCC5)CC4)cn3)nc12 [F] | 107 | 692 |
| CC(C)N1CCN(c2ccc(Nc3ncc4cc5n(c4n3)C3(CCCCC3)CNC5=O)nc2)CC1 [GG] | 57 | – |
| O=C1NCC2(CCCCC2)n2c1cc1cnc(Nc3ccc(N4CCN(CC5CC5)CC4)cn3)nc12 [HH] | 79 | 681 |
| CC(C)N1CCN(c2ccc(Nc3ncc4cc5n(c4n3)C3(CCCC3)CNC5=O)nc2)CC1 [III] | 230 | 775 |
| CC(C)N1CCN(C(=O)c2ccc(Nc3ncc4cc5n(c4n3)C3(CCCCC3)CNC5=O)nc2)CC1 [II] | 42 | 347 |
| CC1(C)CN(c2ccc(Nc3ncc4cc5n(c4n3)C3(CCCCC3)CNC5=O)nc2)CCN1 [I] | 39 | 249 |
| CC1CCN(C2CCN(c3ccc(Nc4ncc5cc6n(c5n4)C4(CCCCC4)CNC6=O)nc3)CC2)C1 (stereo not drawn) [K] | 134 | 167 |

| Structure (SMILES) | EC50 [1] [nM] | EC50 [2] [nM] |
| --- | --- | --- |
| CCOCCN1CCN(c2ccc(Nc3ncc4cc5n(c4n3)C3(CCCC3)CNC5=O)nc2)CC1 [MMM] | 37 | 294 |
| C[C@@H]1CN(c2ccc(Nc3ncc4cc5n(c4n3)C3(CCCCC3)CNC5=O)nc2)C[C@H](C)N1CCC(C)(C)C [M] | 184 | 1460 |
| CC1CN(c2ccc(Nc3ncc4cc5n(c4n3)C3(CCCC3)CNC5=O)nc2)CCN1CC1CC1 (stereo not drawn) [NNN] | 160 | 519 |
| O=C1NCC2(CCCCC2)n2c1cc1cnc(Nc3ccc(N4CCC(N5CCCCC5)CC4)cn3)nc12 [N] | 34 | 122 |
| O=C1NCC2(CCCC2)n2c1cc1cnc(Nc3ccc(C(=O)N4CCN(CC5CC5)CC4)cn3)nc12 [OOO] | 104 | 668 |
| CC(C)N1CCN(c2ccc(Nc3ncc4cc5n(c4n3)C3(CCCCC3)CNC5=O)nc2)CC1C (stereo not drawn) [PP] | 81 | 260 |
| C[C@@H]1CN(c2ccc(Nc3ncc4cc5n(c4n3)C3(CCCCC3)CNC5=O)nc2)C[C@H](C)N1 [P] | 33 | 140 |
| O=C1NCC2(CCCC2)n2c1cc1cnc(Nc3ccc(N4CCNCC4)cn3)nc12 [QQQ] | 258 | 485 |
| CCN(CC)C1CCN(c2ccc(Nc3ncc4cc5n(c4n3)C3(CCCCC3)CNC5=O)nc2)C1 (stereo not drawn) [QQ] | 68 | 851 |
| CCN(CC)C1CCN(C2CCN(c3ccc(Nc4ncc5cc6n(c5n4)C4(CCCCC4)CNC6=O)nc3)CC2)C1 (stereo not drawn) [RR] | 102 | 158 |
| C[C@H]1CN(c2ccc(Nc3ncc4cc5n(c4n3)C3(CCCCC3)CNC5=O)nc2)CCN1C [R] | 43 | 299 |
| O=C1NCC2(CCCC2)n2c1cc1cnc(Nc3ccc(N4CCOCC4)nn3)nc12 [SSS] | 305 | > 3000 |
| CC(C)N1CCN(c2ccc(Nc3ncc4cc5n(c4n3)C3(CCCCC3)CNC5=O)nn2)CC1 [TT] | 92 | 589 |
| CN1CCN(c2ccc(Nc3ncc4cc5n(c4n3)C3(CCCCC3)CNC5=O)nc2)CC1 [T] | 113 | 392 |
| CC(C)[C@H]1CNC(=O)c2cc3cnc(Nc4ccc(N5CCNCC5)cn4)nc3n21 [UUU] | 311 | 1420 |
| C[C@@H](O)CN1CCN(c2ccc(Nc3ncc4cc5n(c4n3)C3(CCCC3)CNC5=O)nc2)C[C@@H]1C [VV] | 115 | 683 |

The remaining compounds from weak to strong by EC50 [1], led by results:

| EC50 [1] [nM] | EC50 [2] [nM] | Structure (SMILES) |
| --- | --- | --- |
| 3040 | – | CC1CN(c2ccc(Nc3ncc4cc5n(c4n3)C3(CCCC3)CNC5=O)nc2)CC(C)N1CCC(C)(C)C (stereo not drawn) [PPP] |
| 587 | 3300 | CN(C)C1CCN(c2ccc(Nc3ncc4cc5n(c4n3)C3(CCCC3)CNC5=O)nn2)CC1 [TTT] |
| 278 | 2010 | CC(C)N1CCN(c2ccc(Nc3ncc4cc5n(c4n3)C3(CCCC3)CNC5=O)nn2)CC1 [RRR] |
| 241 | 1550 | CCN(CC)C1CCN(c2ccc(Nc3ncc4cc5n(c4n3)C3(CCCC3)CNC5=O)nc2)CC1 [LLL] |
| 228 | 3160 | CCN(CC)C1CCN(c2ccc(Nc3ncc4cc5n(c4n3)C3(CCCC3)CNC5=O)nc2)C1 (stereo not drawn) [UU] |
| 224 | 1070 | CCC(C)[C@@H]1CNC(=O)c2cc3cnc(Nc4ccc(N5CCNCC5)cn4)nc3n21 (stereo partly drawn) [VVV] |
| 161 | 839 | C[C@@H]1CN(c2ccc(Nc3ncc4cc5n(c4n3)C3(CCCC3)CNC5=O)nc2)C[C@H](C)N1 [DDD] |
| 161 | 586 | CC(C)N1CCN(c2ccc(Nc3ncc4cc5n(c4n3)C3(CCCC3)CNC5=O)nc2)CC1C (stereo not drawn) [GGG] |
| 156 | 1530 | CC1CN(c2ccc(Nc3ncc4cc5n(c4n3)C3(CCCCC3)CNC5=O)nc2)CCN1CCC(C)(C)C (stereo not drawn) [G] |
| 153 | 1260 | CC(C)N1CCN(c2ccc(Nc3ncc4cc5n(c4n3)C3(CCCCC3)CNC5=O)nc2)C[C@H]1C [L] |
| 143 | 448 | CCC(C)CN1[C@H](C)CN(c2ccc(Nc3ncc4cc5n(c4n3)C3(CCCC3)CNC5=O)nc2)C[C@@H]1C (stereo partly drawn) [JJJ] |
| 133 | 1860 | CC(C)(C)CCN1CCN(c2ccc(Nc3ncc4cc5n(c4n3)C3(CCCC3)CNC5=O)nc2)CC1(C)C [CCC] |
| 118 | 719 | CC1(C)CN(c2ccc(Nc3ncc4cc5n(c4n3)C3(CCCCC3)CNC5=O)nc2)CCN1CC1CC1 [H] |
| 114 | 880 | CC1CN(c2ccc(Nc3ncc4cc5n(c4n3)C3(CCCCC3)CNC5=O)nc2)CC(C)N1CC1CC1 (stereo not drawn) [OO] |
| 112 | 147 | C[C@H]1CN(c2ccc(Nc3ncc4cc5n(c4n3)C3(CCCCC3)CNC5=O)nc2)CCN1 [KK] |
| 110 | 634 | C[C@@H](O)CN1CCN(c2ccc(Nc3ncc4cc5n(c4n3)C3(CCCCC3)CNC5=O)nc2)CC1 [S] |

| EC50 [1] [nM] | EC50 [2] [nM] | Structure (SMILES) |
| --- | --- | --- |
| 85 | 984 | O=C1NCC2(CCCC2)n2c1cc1cnc(Nc3ccc(N4CCC(N5CCCCC5)CC4)cn3)nc12 [HHH] |
| 84 | 501 | O=C1NCC2(CCCCC2)n2c1cc1cnc(Nc3ccc(C(=O)N4CCN(C5CCC5)CC4)cn3)nc12 [LL] |
| 84 | 681 | C[C@@H]1CN(c2ccc(Nc3ncc4cc5n(c4n3)C3(CCCCC3)CNC5=O)nc2)C[C@H](C)N1C[C@@H](C)O [MM] |
| 84 | 1040 | C[C@@H]1CN(c2ccc(Nc3ncc4cc5n(c4n3)C3(CCCCC3)CNC5=O)nc2)CCN1C [NN] |
| 74 | 373 | C[C@H](O)CN1CCN(c2ccc(Nc3ncc4cc5n(c4n3)C3(CCCCC3)CNC5=O)nc2)C[C@@H]1C [C] |
| 58 | 233 | CC(C)N1CCN(c2ccc(Nc3ncc4cc5n(c4n3)C3(CCCCC3)CNC5=O)nc2)C[C@@H]1C [AA] |
| 55 | 297 | CN1CCN(c2ccc(Nc3ncc4cc5n(c4n3)C3(CCCCC3)CNC5=O)nc2)CC1(C)C [D] |
| 49 | 389 | CCN(CC)C1CCN(C(=O)c2ccc(Nc3ncc4cc5n(c4n3)C3(CCCCC3)CNC5=O)nc2)C1 (stereo not drawn) [JJ] |
| 48 | 363 | O=C1NCC2(CCCCC2)n2c1cc1cnc(Nc3ccc(N4CCC(N5CCOCC5)CC4)cn3)nc12 [U] |
| 47 | 362 | C[C@@H]1CN(c2ccc(Nc3ncc4cc5n(c4n3)C3(CCCCC3)CNC5=O)nc2)CCN1C[C@@H](C)O [J] |
| 44 | 123 | CN(C)C1CCN(c2ccc(Nc3ncc4cc5n(c4n3)C3(CCCCC3)CNC5=O)nc2)CC1 [O] |
| 40 | 561 | O=C1NCC2(CCCCC2)n2c1cc1cnc(Nc3ccc(N4CCNCC4)cn3)nc12 [Q] |
| 35 | 194 | C[C@@H]1CN(c2ccc(Nc3ncc4cc5n(c4n3)C3(CCCCC3)CNC5=O)nc2)CCN1 [V] |
| 17 | 111 | CCN(CC)C1CCN(c2ccc(Nc3ncc4cc5n(c4n3)C3(CCCCC3)CNC5=O)nc2)CC1 [CC] |
| 11 | 967 | CN(C)C1CCN(c2ccc(Nc3ncc4cc5n(c4n3)C3(CCCCC3)CNC5=O)nn2)CC1 [SS] |
